Assays:
[1] = target: T1, Recombinant human KIF18A (1-467His-tagged) protein (Homo sapiens, UniProt Q8NI77); assay: KIF18A enzyme assay (microtubule-stimulated ATPase activity, ADP-Glo); type: biochemical; settings: 30 nM KIF18A, 75 μM ATP, 30 μg/mL pig microtubules; read-out: Inhibitory activity against KIF18A IC50
T1 construct: Recombinant human KIF18A (1-467His-tagged) protein; His; made in house
How it was run: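 Buffer 15 mM Tris pH 7.5, 10 mM MgCl2, 0.01% Pluronic F-68, 1 μM paclitaxel, 30 μg/mL pig microtubules; reactions at room temperature. IC50 from inhibition relative to DMSO.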

HCT116 cells = assay: In vitro anti-proliferative activity against HCT116 cells (intracellular ATP content, 72 h); type: cell-based; settings: Homo sapiens, HCT-116, 72 h after dosing
Procedure: Biological Example 3. In Vitro Anti-Proliferative Activity of the Compounds of the Present Invention Against HCT116 Cells
(§1) HCT116 cells were seeded on a 384-well plate at 3000 cells/well. After overnight adherence culture, DMSO or the compounds serially 1:5-diluted from 5 μM were added. The viability of the cells was assessed 72 h after dosing by measuring the intracellular ATP content. The inhibition percentages of viable cells by the compounds were calculated by comparing with the DMSO group, and the IC 50 values were also calculated.

HT-29 cells = assay: In vitro anti-proliferative activity against HT-29 cells (intracellular ATP content, 72 h); type: cell-based; settings: Homo sapiens, 72 h after dosing
Procedure: Biological Example 2. In Vitro Anti-Proliferative Activity of the Compounds of the Present Invention Against HT-29 Cells
as §1, with “HT-29” for “HCT116”, “IC50” for “IC 50”

[2] = test system: Histone H3 Ser10 sites in HT29 cells; assay: Phosphorylation assay of histone H3 Ser10 sites in HT29 cells (immunofluorescence assay); type: cell-based; settings: Homo sapiens, HT-29, 6 h after addition, FITC/DAPI ratio
Procedure: Biological Example 5. Phosphorylation Assay of Histone H3 Ser10 Sites in HT29 Cells (Immunofluorescence Assay)
HT29 cells were seeded in a 96-well plate (Fisher 160376) at 8000 cells/well. The next day, the serially diluted compounds were added. 6 h after the addition of the compounds, the cells were washed once with 1×PBS, immobilized with 4% PFA for 15 min, further washed three times with 1×PBS, and permeabilized with 0.02% Triton-X100 for 10 min. A blocking buffer was then added for blocking for 15-30 min, and 1:3000-diluted primary antibodies (Phospho-Histone H3 (Ser10) (D7N8E) XP® Rabbit mAb #53348) were added. The plate was placed at 4° C. overnight. The next day, the cells were washed three times with 1×PBS, and 1:1000-diluted secondary antibodies (Fluorescein (FITC)-conjugated Affinipure Goat Anti-Rabbit IgG (H+L)) were added. The cells were incubated in the dark for 1-2 h and washed three times with 1×PBS. The nuclei were stained with DAPI, and after the staining was completed, photographs were taken using an MD ImageXpress Pico personal high-content imaging analysis system. The ratio of phosphorylation (FITC/DAPI) at H3 Ser10 sites in HT29 cells was quantified. To evaluate the effects of the compounds on the mitosis phase of HT29 cells, the EC50 values of the compounds were calculated.

T1 sequence (Q8NI77 1-467): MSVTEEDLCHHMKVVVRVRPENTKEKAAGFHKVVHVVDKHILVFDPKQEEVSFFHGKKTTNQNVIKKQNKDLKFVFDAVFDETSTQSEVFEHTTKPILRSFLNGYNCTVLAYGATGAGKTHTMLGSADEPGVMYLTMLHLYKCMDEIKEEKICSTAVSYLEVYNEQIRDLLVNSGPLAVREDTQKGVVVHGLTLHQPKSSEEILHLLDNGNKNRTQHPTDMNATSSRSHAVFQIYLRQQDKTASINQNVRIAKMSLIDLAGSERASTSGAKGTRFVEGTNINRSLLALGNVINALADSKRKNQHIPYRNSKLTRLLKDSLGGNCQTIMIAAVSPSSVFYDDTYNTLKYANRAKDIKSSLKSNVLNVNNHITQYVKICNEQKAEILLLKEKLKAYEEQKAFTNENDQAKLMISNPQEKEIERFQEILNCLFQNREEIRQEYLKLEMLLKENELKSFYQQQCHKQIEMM
T1 sequence (P02550 whole entry partner): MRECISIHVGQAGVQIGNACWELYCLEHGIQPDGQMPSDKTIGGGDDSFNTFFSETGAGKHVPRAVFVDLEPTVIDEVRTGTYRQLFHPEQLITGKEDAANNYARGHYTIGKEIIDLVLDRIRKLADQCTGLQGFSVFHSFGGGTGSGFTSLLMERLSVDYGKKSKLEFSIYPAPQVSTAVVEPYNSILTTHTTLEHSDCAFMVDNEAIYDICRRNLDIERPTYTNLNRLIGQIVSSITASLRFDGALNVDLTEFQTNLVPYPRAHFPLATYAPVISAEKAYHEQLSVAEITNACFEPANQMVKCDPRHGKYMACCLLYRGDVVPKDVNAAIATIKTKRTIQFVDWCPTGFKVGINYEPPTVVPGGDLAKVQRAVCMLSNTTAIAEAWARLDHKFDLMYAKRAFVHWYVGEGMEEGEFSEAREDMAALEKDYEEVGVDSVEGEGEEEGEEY
T1 sequence (P02554 whole entry partner): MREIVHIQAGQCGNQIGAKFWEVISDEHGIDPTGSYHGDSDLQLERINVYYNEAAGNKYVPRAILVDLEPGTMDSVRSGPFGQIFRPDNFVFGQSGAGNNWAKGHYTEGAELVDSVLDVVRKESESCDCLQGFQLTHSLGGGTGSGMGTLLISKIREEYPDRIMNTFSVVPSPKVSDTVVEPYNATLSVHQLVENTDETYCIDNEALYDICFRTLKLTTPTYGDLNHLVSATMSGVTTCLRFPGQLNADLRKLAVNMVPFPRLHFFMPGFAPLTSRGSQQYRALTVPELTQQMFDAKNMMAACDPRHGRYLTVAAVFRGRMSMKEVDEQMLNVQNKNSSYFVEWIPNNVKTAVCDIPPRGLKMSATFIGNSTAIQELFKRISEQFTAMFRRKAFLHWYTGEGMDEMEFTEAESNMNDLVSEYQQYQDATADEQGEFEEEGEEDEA

`O=C(Nc1ccc([N+](=O)[O-])c(N2CCC(F)(F)CC2)c1)c1ccc(NS(=O)(=O)CCO)cc1N1CCC2(CC1)CC2` [Compound 1] was tested, and the IC50 [1] was no more than 100 nM, the IC50 (HCT116 cells) was greater than 10000 nM and the IC50 (HT-29 cells) was 75.3 nM.

`C[C@H]1CN(c2cc(NC(=O)c3ccc(NS(=O)(=O)CCO)cc3N3CCC4(CC3)CC4)ccc2[N+](=O)[O-])CCO1` [Compound 3] showed an IC50 [1] of no more than 100 nM, an IC50 (HCT116 cells) greater than 10000 nM and an IC50 (HT-29 cells) of 1600 nM.

For `O=C(Nc1ccc([N+](=O)[O-])c(N2CC(F)(F)C2)c1)c1ccc(NS(=O)(=O)CCO)cc1N1CCC2(CC1)CC2` [Compound 4], the IC50 [1] was no more than 100 nM, the IC50 (HCT116 cells) was greater than 10000 nM and the IC50 (HT-29 cells) was 191 nM.

With `O=C(Nc1ccc([N+](=O)[O-])c(N2CCC3(CC3)C2)c1)c1ccc(NS(=O)(=O)CCO)cc1N1CCC2(CC1)CC2` [Compound 6] the IC50 [1] was no more than 100 nM, the IC50 (HCT116 cells) was greater than 10000 nM and the IC50 (HT-29 cells) was 826 nM.

`O=C(Nc1ccc([N+](=O)[O-])c(OC2CCC2)c1)c1ccc(NS(=O)(=O)CCO)cc1N1CCC2(CC1)CC2` [Compound 7] showed an IC50 [1] of no more than 100 nM, an IC50 (HCT116 cells) greater than 10000 nM and an IC50 (HT-29 cells) of 339 nM.

`O=C(Nc1ccc([N+](=O)[O-])c(N2CCC(F)(F)CC2)n1)c1ccc(NS(=O)(=O)CCO)cc1N1CCC2(CC1)CC2` [Compound 65] was tested, and the IC50 [1] was no more than 100 nM, the EC50 [2] was 45.5 nM and the IC50 (HCT116 cells) was greater than 10000 nM. For the same compound, the IC50 (HT-29 cells) was 55.3 nM.

Work on `O=C(Nc1ccc([N+](=O)[O-])c(N2CCC(F)(F)CC2)c1)c1cnc(NS(=O)(=O)CCO)cc1N1CCC2(CC1)CC2` [Compound 97] yielded an IC50 [1] of no more than 100 nM, an IC50 (HCT116 cells) greater than 10000 nM and an IC50 (HT-29 cells) greater than 2000 nM.

In the case of `O=C(Nc1ccc([N+](=O)[O-])c(N2CCC(F)(F)CC2)n1)c1cnc(NS(=O)(=O)CCO)cc1N1CCC2(CC1)CC2` [Compound 129], the IC50 [1] is reported as no more than 100 nM, the IC50 (HCT116 cells) is reported as greater than 10000 nM and the IC50 (HT-29 cells) is reported as 134 nM.

Work on `O=C(Nc1ccc(NS(=O)(=O)CCO)cc1N1CCC2(CC1)CC2)c1ccc([N+](=O)[O-])c(N2CCC(F)(F)CC2)n1` [Compound 161] yielded an IC50 [1] of no more than 100 nM, an EC50 [2] of 26.4 nM and an IC50 (HCT116 cells) greater than 10000 nM. The IC50 (HT-29 cells) was 66.1 nM.

`COc1ccc(NC(=O)c2ccc(NS(=O)(=O)CCO)cc2N2CCC3(CC2)CC3)nc1N1CCC(F)(F)CC1` [Compound 257] was tested, and the IC50 [1] was no more than 100 nM, the EC50 [2] was 8.4 nM and the IC50 (HCT116 cells) was greater than 10000 nM. For the same compound, the IC50 (HT-29 cells) was 11.1 nM.

In the case of `COc1ccc(NC(=O)c2ccc(NS(=O)(=O)CCO)cc2N2CCC3(CC2)CC3)nc1N1CCO[C@H](C)C1` [Compound 258], the IC50 [1] is reported as no more than 100 nM, the IC50 (HCT116 cells) is reported as greater than 10000 nM and the IC50 (HT-29 cells) is reported as 190 nM.

Compound `COc1ccc(NC(=O)c2ccc(NS(=O)(=O)CCO)cc2N2CCC3(CC2)CC3)nc1N1CCO[C@@H](C)C1` [Compound 259] has an IC50 [1] of no more than 100 nM, an IC50 (HCT116 cells) greater than 10000 nM and an IC50 (HT-29 cells) of 282 nM.

For `COc1ccc(NC(=O)c2ccc(NS(=O)(=O)CCO)cc2N2CCC3(CC2)CC3)nc1N1CC(F)(F)C1` [Compound 260], the IC50 [1] was no more than 100 nM, the IC50 (HCT116 cells) was greater than 10000 nM and the IC50 (HT-29 cells) was 55.2 nM.

`COc1ccc(NC(=O)c2ccc(NS(=O)(=O)CCO)cc2N2CCC3(CC2)CC3)nc1OCCC(F)(F)F` [Compound 261] showed an IC50 [1] of no more than 100 nM, an IC50 (HCT116 cells) greater than 10000 nM and an IC50 (HT-29 cells) of 75.7 nM.

For `COc1ccc(NC(=O)c2ccc(NS(=O)(=O)CCO)cc2N2CCC3(CC2)CC3)nc1N1CCC2(CC2)C1` [Compound 262], the IC50 [1] was no more than 100 nM, the IC50 (HCT116 cells) was greater than 10000 nM and the IC50 (HT-29 cells) was 242 nM.

Work on `COc1ccc(NC(=O)c2ccc(NS(=O)(=O)CCO)cc2N2CCC3(CC2)CC3)nc1OC1CCC1` [Compound 263] yielded an IC50 [1] of no more than 100 nM, an IC50 (HCT116 cells) greater than 10000 nM and an IC50 (HT-29 cells) of 85.7 nM.

From patent US20260158017A1, “KIF18A INHIBITOR” (WIGEN BIOMEDICINE TECHNOLOGY (SHANGHAI) CO., LTD., priority 2021, published 2026)
